Where two headings read alike, the source gives them in different places. Where no end group is shown, it is not given here.

The subject of one assay is expanded CD8 T-cells. The assay is described as follows: intracellular cytokine staining of expanded CD8 T-cells after peptide restimulation. Format: cell-based, chimpanzee (Pan troglodytes). To be noted: two weeks after the final vaccine boost. The text has this:
For stimulation and expansion of HCV-specific cells, two different NS3-peptide-pools were compiled: NS3vaccine was a mixture of 15-mer peptides with 11 amino acids overlap, covering the NS3-sequence of the vaccine constructs; NS3challenge was a mixture of 15-mer peptides with 11 amino acids overlap covering the NS3-variants observed in the inoculum. Identification of NS3 epitopes within NS3 was first performed via the matrix setup and confirmed in a second assay using individual peptides (peptide-sequences are listed in Table S1).
Cells isolated before infection were expanded and tested for response against peptide-pool NS3vaccine, whereas cells isolated after challenge were tested against peptide-pool NS3challenge. PBMCs isolated at the day of challenge were stimulated in two separate cultures with either NS3vaccine or NS3challenge. […]
The cytokine production profile of HCV-specific T-cell lines was determined by intracellular cytokine staining (ICS) after restimulation with NS3-peptides. […] Cell staining was analyzed on a FACSAria (BD Bioscience) and DIVA software Version 6.1.1.

Assay [1] concerns the target T1, Patr-A*03∶01 (Pan troglodytes, UniProt P13748).
T1 construct: expressed in transfected cells; host or cells: K562 or 721.221 cells
Put plainly: cell-based peptide-binding-competition-assay, Patr-A*03∶01. The arrangement: species or system chimpanzee (Pan troglodytes). Conditions: competition with 500nM biotinylated indicator peptide […], overnight, europium-streptavidin DELFIA. Here is the method: A cell-based peptide-binding-competition-assay was performed as previously described. In this assay, peptides are tested for binding to transfected cell lines expressing chimpanzee class-I molecules, while competing with a biotin-labeled reference-peptide. […] After overnight incubation, excess peptide was removed by washing and indicator-peptide bound to cells was quantified using the DELFIA-system and the Victor3 1420 multilabel counter (Perkin Elmer). The binding affinity of the indicator peptide was verified using its unlabeled peptide as competitor, this is referred to as standardized competitor [15].

The target in assay [2] is T1, Patr-A*03∶01. The arrangement: method as in PMID 20696916. Conditions: unlabeled indicator peptide as competitor; ref [15]; read-out: IC50 of standardized competitor; cited from earlier work.
Where [3] appears, read: MHC class I transfected K562 or 721.221 cells, regression curves of three independent experiments.

In the case of “IRTGVRTITTGGPIT [p64, 15-mer NS3 peptide]”, the “cytokine induction in expanded CD8 T-cells” value in the assay on expanded CD8 T-cells (Vac1) was “did not induce cytokine production”; with expanded CD8 T-cells (Vac2), “moderate dual IFNγ/IL-2 and IFNγ/TNFa cytokine production”.

Consider `CC(C)C[C@H](NC(=O)[C@@H](NC(=O)[C@H](C)NC(=O)[C@H](C)N)[C@@H](C)O)C(=O)NCC(=O)N[C@@H](Cc1ccccc1)C(=O)NCC(=O)N[C@@H](C)C(=O)N[C@@H](Cc1ccc(O)cc1)C(=O)O`, for which, on Patr-A*03∶01 [1] (setting [3]), the 50% inhibitory concentration (IC50) came out at 200 nM.

`CSCC[C@H](NC(=O)[C@H](Cc1ccc(O)cc1)NC(=O)[C@H](C)NC(=O)CNC(=O)[C@H](Cc1ccccc1)NC(=O)CNC(=O)[C@@H](N)CC(C)C)C(=O)N[C@@H](CO)C(=O)N[C@@H](CCCCN)C(=O)O` displayed a concentration for half-maximal inhibition (IC50) on Patr-A*03∶01 [1] (setting [3]) of 30 nM.

At Patr-A*03∶01 [1] (setting [3]), VAATLGFGAYMSKAH [p59] gave an IC50 of 60 nM.

As for “standardized competitor peptide of Patr-A*03∶01: unlabeled peptide of the A*03∶01 indicator peptide, used as competitor (ATALECVYK; Unlabeled: no biotin on Cys6, which carries biotin in the indicator form)”, the IC50 with Patr-A*03∶01 [2] was 1500 nM.

On to KGGLRPRAG [reference compound], for which the IC50 at Patr-A*03∶01 [1] (transfected K562 or 721.221 cells, two individual experiments) stood at 8200 nM.

A word on the IC50: it is the concentration needed to halve the response being measured.

Source of the values: PMC3989318, “Strong Vaccine-Induced CD8 T-Cell Responses Have Cytolytic Function in a Chimpanzee Clearing HCV Infection” (PLoS ONE, 2014).
